Test results taken from ChEMBL document CHEMBL4765323, “Design, synthesis, and biological evaluation of novel miconazole analogues containing selenium as potent antifungal agents” (Eur J Med Chem, 2020).
Converted amounts (≈) assume the structure as drawn.

How the values were obtained:
Candida albicans [1] = test: Antifungal activity against Candida albicans CPCC400616 measured after 24 hrs by micro-broth dilution assay; assay type: functional
Candida albicans [2] = test: Antifungal activity against Candida albicans ATCC SC5314 measured after 24 hrs by micro-broth dilution assay; assay type: functional
[Candida] zeylanoides = Antifungal activity against Candida zeylanoides CMGCC2.3739 measured after 24 hrs by micro-broth dilution assay; assay type: functional; conditions: Dujonia zeylanoides
Cryptococcus neoformans = test: Antifungal activity against Cryptococcus neoformans CGMCC2.3161 measured after 72 hrs by micro-broth dilution assay; assay type: functional
Pichia kudriavzevii = test: Antifungal activity against Candida krusei AS 2.1045 measured after 24 hrs by micro-broth dilution assay; assay type: functional
Nakaseomyces glabratus = test: Antifungal activity against clinical isolate Candida glabrata measured after 24 hrs by micro-broth dilution assay; assay type: functional
Candida parapsilosis = test: Antifungal activity against Candida parapsilosis ATCC 22019 measured after 24 hrs by micro-broth dilution assay; assay type: functional; conditions: Lodderomyces parapsilosis
Aspergillus fumigatus = test: Antifungal activity against Aspergillus fumigatus CGMCC 3.7795 measured after 72 hrs by micro-broth dilution assay; assay type: functional
Candida albicans [3] = test: Antifungal activity against fluconazole-resistant Candida albicans CaR measured after 24 hrs by micro-broth dilution assay; assay type: functional
Candida albicans [4] = test: Antifungal activity against fluconazole-resistant Candida albicans 17 measured after 24 hrs by micro-broth dilution assay; assay type: functional
Candida albicans [5] = test: Antifungal activity against fluconazole-resistant Candida albicans 632 measured after 24 hrs by micro-broth dilution assay; assay type: functional
Candida albicans [6] = test: Antifungal activity against Candida albicans 901 measured after 24 hrs by micro-broth dilution assay; assay type: functional
Candida albicans [7] = test: Antifungal activity against fluconazole-resistant Candida albicans strain 904 measured after 24 hrs by micro-broth dilution assay; assay type: functional
Candida albicans [8] = test: Fungicidal activity against Candida albicans CPCC400616 measured after 48 hrs; assay type: functional
[9] = Ratio of MFC for fungicidal activity against Candida albicans CPCC400616 to MIC for Antifungal activity against Candida albicans CPCC400616; assay type: functional; conditions: time 24 hrs
Candida albicans [10] = test: Antibiofilm activity against FCZ-Resistant Candida albicans CPCC400616 assessed as sessile minimum inhibitory concentration of biofilm formation at 50% after 1.5 hrs by XTT assay; assay type: functional
Candida albicans [11] = test: Antibiofilm activity against FCZ-Resistant Candida albicans CPCC400616 assessed as sessile minimum inhibitory concentration of biofilm formation at 50% after 3 hrs by XTT assay; assay type: functional
Candida albicans [12] = test: Antibiofilm activity against FCZ-Resistant Candida albicans CPCC400616 assessed as sessile minimum inhibitory concentration of biofilm formation at 50% after 6 hrs by XTT assay; assay type: functional
Candida albicans [13] = test: Antibiofilm activity against FCZ-Resistant Candida albicans CPCC400616 assessed as sessile minimum inhibitory concentration of biofilm formation at 50% after 24 hrs by XTT assay; assay type: functional
Erythrocyte = test: Hemolytic activity in rabbit RBC assessed as hemolysis ratio at 1 ug/ml measured after 3 hrs relative to control; assay type: ADME, cell-based, Oryctolagus cuniculus; conditions: dose 1 µg/ml
Candida albicans [14] = test: Antibiofilm activity against FCZ-Resistant Candida albicans CPCC400616 assessed as sessile minimum inhibitory concentration of biofilm formation at 80% after 1.5 hrs by XTT assay; assay type: functional
Candida albicans [15] = test: Antibiofilm activity against FCZ-Resistant Candida albicans CPCC400616 assessed as sessile minimum inhibitory concentration of biofilm formation at 80% after 3 hrs by XTT assay; assay type: functional
Candida albicans [16] = test: Antibiofilm activity against FCZ-Resistant Candida albicans CPCC400616 assessed as sessile minimum inhibitory concentration of biofilm formation at 80% after 6 hrs by XTT assay; assay type: functional
Candida albicans [17] = test: Antibiofilm activity against FCZ-Resistant Candida albicans CPCC400616 assessed as sessile minimum inhibitory concentration of biofilm formation at 80% after 24 hrs by XTT assay; assay type: functional
[18] = Ratio of hemolysis activity in rabbit RBC to MIC for Candida albicans; assay type: toxicity; conditions: rabbit red blood cells (RBC)

## Fc1ccc(Br)c(C[Se]C(Cn2ccnc2)c2ccc(Cl)cc2Cl)c1 (stereo not given)
Candida albicans [1]
  MIC: 0.02 µg/mL (≈ 0.0394 µM)
Candida albicans [2]
  MIC: 0.01 µg/mL (≈ 0.0197 µM)
[Candida] zeylanoides
  MIC: 0.5 µg/mL (≈ 0.986 µM)
Cryptococcus neoformans
  MIC: 0.25 µg/mL (≈ 0.493 µM)
Pichia kudriavzevii
  MIC: 0.13 µg/mL (≈ 0.256 µM)
Nakaseomyces glabratus
  MIC: 0.5 µg/mL (≈ 0.986 µM)
Candida parapsilosis
  MIC: 0.02 µg/mL (≈ 0.0394 µM)
Aspergillus fumigatus
  MIC: 0.5 µg/mL (≈ 0.986 µM)
Candida albicans [3]
  MIC: 0.13 µg/mL (≈ 0.256 µM)
Candida albicans [4]
  MIC: 0.03 µg/mL (≈ 0.0592 µM)
Candida albicans [5]
  MIC: 0.13 µg/mL (≈ 0.256 µM)
Candida albicans [6]
  MIC: 0.25 µg/mL (≈ 0.493 µM)
Candida albicans [7]
  MIC: 0.13 µg/mL (≈ 0.256 µM)
Candida albicans [8]
  MIC: 0.0625 µg/mL (≈ 0.123 µM)
[9]
  MFC/MIC ratio: 4
Candida albicans [10]
  Activity: 1 µg/mL
Candida albicans [11]
  Activity: 8 µg/mL
Candida albicans [12]
  Activity: 8 µg/mL
Candida albicans [13]
  Activity: 128 µg/mL
Erythrocyte
  Activity: 0.49 µg/mL
Candida albicans [14]
  Activity: 8 µg/mL
Candida albicans [15]
  Activity: 64 µg/mL
Candida albicans [16]
  Activity: >128 µg/mL
Candida albicans [17]
  Activity: >128 µg/mL
[18]
  selectivity ratio: 256
